Assay [1] has as its system beet armyworm (BAW; Spodoptera exigua: Lepidoptera). Description: 96-well microtiter plate-based high throughput (HTS) diet bioassay on beet armyworm (BAW HTS). The class given is in vivo. To be noted: BAW eggs, 12 μg test compound per well, mortality at 6 d post-treatment, mortality class. Summed up:
(§1)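 Percent larval mortality after six days was the endpoint. Higher-throughput plates used eggs, 12 μg compound per well and 29° C darkness; trays used second instar larvae, a 50 μg/cm^2 dose and 25° C with 14:10 light cycle.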

The test system is the same in assay [2]. Description: 128-well diet tray assay on beet armyworm (BAW 50). To be noted: 128-well diet tray assay; 50 μg/cm^2 of test compound on diet; second instar BAW larvae; mortality class. The class given is in vivo. Summed up: as §1
Where [3] appears, read: 96-well microtiter plate HTS diet assay.

For the compound `COC1C(C)OC(ON=Cc2ccc(-c3cc(-c4ccc(OC(F)(F)F)cc4)ccn3)cc2)C(OC)C1OC` (stereo not drawn) [Compound 133], the “BAW HTS” value is “B (either (1) the compound was tested and less than 50 percent mortality was observed or (2) the compound was not tested)” in assay [1] (96-well HTS diet assay); “B (either (1) the compound was tested and less than 50 percent mortality was observed or (2) the compound was not tested)” in assay [1] (setting [3]). Besides, the “BAW 50 ug/cm2” value in assay [2] was “A (the compound was tested and at least 50 percent mortality was observed)”.
Take `COC1C(C)OC(ON=Cc2ccc(-c3cccc(-c4ccc(OC(F)(F)F)cc4)n3)cc2)C(OC)C1OC` (stereo not drawn) [Compound 134]: the “BAW HTS” value was “B (either (1) the compound was tested and less than 50 percent mortality was observed or (2) the compound was not tested)” in assay [1] (96-well HTS diet assay); “B (either (1) the compound was tested and less than 50 percent mortality was observed or (2) the compound was not tested)” in assay [1] (setting [3]). Moreover, in assay [2], the “BAW 50 ug/cm2” value was “A (the compound was tested and at least 50 percent mortality was observed)”.
Regarding `COC1C(C)OC(ON=Cc2ccc(-c3cncc(-c4ccc(OC(F)(F)F)cc4)c3)cc2)C(OC)C1OC` (stereo not drawn) [Compound 135], the “BAW HTS” value in assay [1] (96-well HTS diet assay) was “B (either (1) the compound was tested and less than 50 percent mortality was observed or (2) the compound was not tested)”; in assay [1] (setting [3]), “B (either (1) the compound was tested and less than 50 percent mortality was observed or (2) the compound was not tested)”. Moreover, the “BAW 50 ug/cm2” value in assay [2] is “A (the compound was tested and at least 50 percent mortality was observed)”.
On to `COC1C(C)OC(ON=Cc2ccc(-c3ncc(-c4ccc(OC(F)(F)F)cc4)cn3)cc2)C(OC)C1OC` (stereo not drawn) [Compound 136], for which the “BAW HTS” value in assay [1] (96-well HTS diet assay) was “B (either (1) the compound was tested and less than 50 percent mortality was observed or (2) the compound was not tested)”; in assay [1] (setting [3]) it was “B (either (1) the compound was tested and less than 50 percent mortality was observed or (2) the compound was not tested)”. Besides, in assay [2], the “BAW 50 ug/cm2” value is “A (the compound was tested and at least 50 percent mortality was observed)”.
For `COC1C(C)OC(ON=Cc2ccc(-c3cnc(-c4ccc(OC(F)(F)F)cc4)nc3)cc2)C(OC)C1OC` (stereo not drawn) [Compound 137], the “BAW HTS” value in assay [1] (96-well HTS diet assay) was “B (either (1) the compound was tested and less than 50 percent mortality was observed or (2) the compound was not tested)”; in assay [1] (setting [3]) it was “B (either (1) the compound was tested and less than 50 percent mortality was observed or (2) the compound was not tested)”. The “BAW 50 ug/cm2” value in assay [2] was “A (the compound was tested and at least 50 percent mortality was observed)”.
Turning to `COC1C(C)OC(ON=Cc2ccc(-c3nccc(-c4ccc(OC(F)(F)F)cc4)n3)cc2)C(OC)C1OC` (stereo not drawn) [Compound 138], the “BAW HTS” value in assay [1] (96-well HTS diet assay) was “A (the compound was tested and at least 50 percent mortality was observed)”; in assay [1] (setting [3]), “A (the compound was tested and at least 50 percent mortality was observed)”. Moreover, in assay [2], the “BAW 50 ug/cm2” value was “A (the compound was tested and at least 50 percent mortality was observed)”.
As for `COC1C(C)OC(ON=Cc2ccc(-c3ccnc(-c4ccc(OC(F)(F)F)cc4)n3)cc2)C(OC)C1OC` (stereo not drawn) [Compound 139], the “BAW HTS” value in assay [1] (96-well HTS diet assay) was “A (the compound was tested and at least 50 percent mortality was observed)”; in assay [1] (setting [3]) it was “A (the compound was tested and at least 50 percent mortality was observed)”. Also, the “BAW 50 ug/cm2” value in assay [2] was “A (the compound was tested and at least 50 percent mortality was observed)”.
For the compound `COC1C(C)OC(ON=Cc2ccc(-c3cc(-c4ccc(OC(F)(F)F)cc4)ncn3)cc2)C(OC)C1OC` (stereo not drawn) [Compound 140], the “BAW HTS” value was “B (either (1) the compound was tested and less than 50 percent mortality was observed or (2) the compound was not tested)” in assay [1] (96-well HTS diet assay); “B (either (1) the compound was tested and less than 50 percent mortality was observed or (2) the compound was not tested)” in assay [1] (setting [3]). For the same compound, the “BAW 50 ug/cm2” value in assay [2] was “A (the compound was tested and at least 50 percent mortality was observed)”.
Take `CO[C@@H]1[C@@H](OC)[C@H](C)O[C@@H](O/N=C/c2ccc(-c3ncc(-c4ccc(OC(F)(F)C(F)(F)F)cc4)cn3)cc2)[C@@H]1OC` [Compound 141]: the “BAW HTS” value is “A (the compound was tested and at least 50 percent mortality was observed)” in assay [1] (96-well HTS diet assay); “A (the compound was tested and at least 50 percent mortality was observed)” in assay [1] (setting [3]). Besides, the “BAW 50 ug/cm2” value in assay [2] is “A (the compound was tested and at least 50 percent mortality was observed)”.
Take `CCOC1C(OC)C(C)OC(ON=Cc2ccc(-c3ncc(-c4ccc(OC(F)(F)C(F)(F)F)cc4)cn3)cc2)C1OC` (stereo not drawn) [Compound 142]: the “BAW HTS” value is “A (the compound was tested and at least 50 percent mortality was observed)” in assay [1] (96-well HTS diet assay); “A (the compound was tested and at least 50 percent mortality was observed)” in assay [1] (setting [3]). The “BAW 50 ug/cm2” value in assay [2] is “A (the compound was tested and at least 50 percent mortality was observed)”.
Take `CCOC1C(OC)C(C)OC(ON=Cc2ccc(-c3ncc(-c4cccc(OC(F)(F)F)c4)cn3)cc2)C1OC` (stereo not drawn) [Compound 143]: the “BAW HTS” value in assay [1] (96-well HTS diet assay) is “B (either (1) the compound was tested and less than 50 percent mortality was observed or (2) the compound was not tested)”; in assay [1] (setting [3]), “B (either (1) the compound was tested and less than 50 percent mortality was observed or (2) the compound was not tested)”. In addition, in assay [2], the “BAW 50 ug/cm2” value was “A (the compound was tested and at least 50 percent mortality was observed)”.
In the case of `CCCOC1C(OC)C(C)OC(ON=Cc2ccc(-c3ncc(-c4ccc(OC(F)(F)F)cc4)cn3)cc2)C1OC` (stereo not drawn) [Compound 144], the “BAW HTS” value in assay [1] (96-well HTS diet assay) was “B (either (1) the compound was tested and less than 50 percent mortality was observed or (2) the compound was not tested)”; in assay [1] (setting [3]), “B (either (1) the compound was tested and less than 50 percent mortality was observed or (2) the compound was not tested)”. For the same compound, the “BAW 50 ug/cm2” value in assay [2] is “A (the compound was tested and at least 50 percent mortality was observed)”.
In the case of `CCOC1C(OC)C(C)OC(ON=Cc2cccc(-c3ncc(-c4ccc(OC(F)(F)F)cc4)cn3)c2)C1OC` (stereo not drawn) [Compound 146], the “BAW HTS” value in assay [1] (96-well HTS diet assay) was “B (either (1) the compound was tested and less than 50 percent mortality was observed or (2) the compound was not tested)”; in assay [1] (setting [3]), “B (either (1) the compound was tested and less than 50 percent mortality was observed or (2) the compound was not tested)”. In assay [2], the “BAW 50 ug/cm2” value was “A (the compound was tested and at least 50 percent mortality was observed)”.
Turning to `CCOC1C(OC)C(C)OC(ON=Cc2cccc(-c3ncc(-c4ccccc4OC(F)(F)F)cn3)c2)C1OC` (stereo not drawn) [Compound 147], the “BAW HTS” value in assay [1] (96-well HTS diet assay) was “B (either (1) the compound was tested and less than 50 percent mortality was observed or (2) the compound was not tested)”; in assay [1] (setting [3]), “B (either (1) the compound was tested and less than 50 percent mortality was observed or (2) the compound was not tested)”. Besides, the “BAW 50 ug/cm2” value in assay [2] was “B (either (1) the compound was tested and less than 50 percent mortality was observed or (2) the compound was not tested)”.
`CCOC1C(OC)C(C)OC(ON=Cc2ccc(-c3ncc(-c4ccc(OC(F)(F)F)cc4)cn3)cc2F)C1OC` (stereo not drawn) [Compound 148]: the “BAW HTS” value in assay [1] (96-well HTS diet assay) is “B (either (1) the compound was tested and less than 50 percent mortality was observed or (2) the compound was not tested)”; in assay [1] (setting [3]) it was “B (either (1) the compound was tested and less than 50 percent mortality was observed or (2) the compound was not tested)”. For the same compound, in assay [2], the “BAW 50 ug/cm2” value was “A (the compound was tested and at least 50 percent mortality was observed)”.

Values taken from US8178658B2 (Dow AgroSciences, LLC, priority 2008, dated 2012).
